Where two headings read alike, the source gives them in different places. Square brackets hold non-standard residues; d marks the D form. Peptide text beside a SMILES is read from it. Nle = CCCC[C@H](N)C(=O)O
How the values were obtained:
[1] = test system: ischemia/reperfusion injury of the liver; assay: in vivo warm ischemia (Pringle's maneuver) and reperfusion of the liver in rats; parameters: species or system male Wistar rats; details: for Creatinine / GPT / LDH / TNF-alpha: 30 minutes warm ischemia of the liver, 60 minutes of reperfusion, GdCl3 10 mg/kg 24 hours prior
Description: In the following experiment, the ability of an in vivo treatment with meloxicam to reduce ischemia/reperfusion injury of the liver was assessed.
For this purpose, male Wistar rats (250 g to 280 g body weight) were anesthetized with intraperitoneal application of pentobarbital (50 mg/kg body weight) and atropine (0.05 mg). All animals were subjected to a 30 minutes warm ischemia of the liver (Pringle's maneuver) and 60 minutes of reperfusion after median lapatomtomy.
One group of animals received no additional treatment (Control group). Another group was given 1 mg/kg body weight meloxicam just prior to the operation (COX-2I group). A third group was given 10 mg/kg body weight gadolinium chloride (GdCl3) 24 hours prior to the operation (GdCl3 group). A fourth group was given 10 mg/kg body weight gadolinium chloride 24 hours prior to operation and 1 mg/kg body weight meloxicam just prior to the operation (GdCl3+COX-2I group). Gadolinium chloride provides for a selective depletion of the liver Kupffer cells.
To assess and compare the level of injury in all groups of animals, a measurement of the enzyme release of glutamate pyruvate transaminase (GPT) and lactate dehydrogenase (LDH) was measured as indicator of hepatocellular injury, and the release of creatinine and TNF-alpha as an indicator of inflammation. To quantify the cellular damage on a structural level, histochemistry was performed with HE staining as well as immunohistochemistry using the TUNEL assay to quantify the apoptotic changes of the livers.

[2] = test system: livers of NHBDs (Non Heart Beating Donors); assay: ischemic in vitro preservation and reperfusion of livers of Non Heart Beating Donors; parameters: species or system Wistar rat; details: meloxicam 4.6 mg/kg body weight added to HTK solution; 60 minutes warm ischemia, 24 hours at 4° C., 45 minutes of reperfusion
Description: A previous (unpublished) study was been performed by the inventors on the ischemic in vitro preservation of livers of NHBDs (Non Heart Beating Donors). The aim of this study was to test the ability of meloxicam to ameliorate the ischemia/reperfusion injury of these livers. The experiments were performed using a Wistar rat model. Cardiac arrest was induced in Wistar rats under anesthesia by phrenotomy. The livers were excised after 60 minutes of warm ischemia, flushed with 20 mL of Ringer's solution containing heparin and subsequently with 60 mL of Histidine-Tryptophane-Cetoglutarate (or HTK) solution and preserved for 24 hours at 4° C. In half of the experiments, meloxicam (4.6 mg/kg body weight) was added to the HTK solution. Reperfusion was carried out in vitro (3 mL/g/min) with oxygenated buffer at 37° C. After 45 minutes of reperfusion, portal venous pressure (PVP) was measured to evaluate vascular conductivity, the enzyme release of alanine aminotransferase (ALT) and […] (GLDH) was measured as indicator of hepatocellular injury, and the bile production and oxygen consumption (VO2) as parameter of functional recovery of the livers. To estimate the impact of oxygen free radicals, the production of malondialdehyde was measured in the hepatic effluent.

[3] = test system: liver injuries after Pringle's maneuver; details: cited from earlier work; for number of polymorphonuclear neutrophils, lower than in untreated animals: 1 mg/kg
[4] = test system: warm ischemia/reperfusion injury (hepatic parenchymal injury); details: pre- and post-ischemic administration; serum ALT, AST, LDH, HA; cited from earlier work
[5] = test system: injury associated with ischemia/reperfusion of the brain, liver, kidney, lung, intestine, heart, and pancreas; details: administered 30 minutes prior to an hemorrhagic shock; cited from earlier work
[6] = test system: ischemia/reperfusion injury during organ operation or transplantation; details: in vivo; cited from earlier work
[7] = meloxicam 1 mg/kg just prior to operation
[8] = 1 mg/kg via the portal vein, 60 minutes warm ischemia

For Cc1cnc(NC(=O)C2=C(O)c3ccccc3S(=O)(=O)N2C)s1 [COX-2I, 4-hydroxy-2-methyl-N-(5-methyl-2-thiazolyl)-2H-1,2-benzothiazine-3-carboxamide-1,1-dioxide], the Creatinine [1, 7] was 0.65 mg/dL, the GPT [1, 7] was 973 Units/liter and the LDH [1, 7] was 6765 Units/liter. For the same compound, the TNF-alpha [1, 7] was 3.5 pg/mL serum, the “lower level of GPT compared to the untreated Control group” value [1, 7] was 3 times and the “lower level of LDH compared to the untreated Control group” value [1, 7] was 4 times. The “lower level of TNF-alpha compared to the untreated Control group” value [1, 7] was 5 times, the “lower level of creatinine compared to the untreated Control group” value [1, 7] was 2 times and the “necrotic and apoptotic changes of the liver (HE staining, TUNEL assay)” value ([1]; meloxicam treated groups, histochemistry) was “less necrotic as well as less apoptotic changes”. The “reduction of infiltration of MPO (myloperoxidase) positive cells into the liver after I/R” value ([1]; myeloperoxidase reaction (Hanker-Yates solution)) was ~50%, the “in vitro preservation of grafts from NHBDs” value [2] was “improves the in vitro preservation of grafts from NHBDs” and the “production of free oxygen radicals during reperfusion (malondialdehyde in hepatic effluent)” value [2] was “decreased the production of free oxygen radicals during reperfusion”.

For CC(=O)c1ccc(NS(C)(=O)=O)c(Oc2ccc(F)cc2F)c1 [FK3311, 4′-acetyl-2′-(2,4-difluorophenoxy)methanesulfonanilide], the “level of serum enzyme activity (GOT, GPT, LDH) relative to untreated animals” value [3, 8] is listed as “about half”, the “time after reperfusion by which blood flow recovered to the pre-ischemic level” value [3, 8] is listed as ≤ 30 min and the “number of polymorphonuclear neutrophils, lower than in untreated animals” value ([3]; 1 hour after reperfusion) is listed as “about 40%”. For the same compound, the “number of polymorphonuclear neutrophils, lower than in untreated animals” value ([3]; 6 hours after reperfusion) was “about 25%” and the “protection against warm ischemia/reperfusion injury” value [4] was “satisfactory protection”.

With [Cl][Gd]([Cl])[Cl] [GdCl3, gadolinium chloride] the Creatinine [1, 7] was 0.94 mg/dL, the GPT [1, 7] was 1611 Units/liter and the LDH [1, 7] was 12100 Units/liter. It also gave a TNF-alpha [1, 7] of 8.05 pg/mL serum.

In the case of CC(=N)NCCCC[C@H](N)C(=O)O.Cl.Cl [LNIL, L-N^6-(L-iminoethyl)lysine dihydrochloride], the “injury associated with ischemia/reperfusion of organs” value [5] is given as “may also contribute to a protective effect”.

For CC(=O)Oc1ccccc1C(=O)O [aspirin], the “reduction of ischemia/reperfusion injury during organ operation or transplantation” value [6] is listed as “did not significantly reduce”.

For CCCC[C@@H](C=O)NC(=O)[C@H](CC(C)C)NC(=O)[C@H](CC(C)C)NC(C)=O [calpain inhibitor I] (Ac-Leu-Leu-[Nle]-aldehyde), the “injury associated with ischemia/reperfusion of organs” value [5] is listed as “reduces the injury”.

For COc1ccc2c(c1)c(CC(=O)O)c(C)n2C(=O)c1ccc(Cl)cc1 [indomethacin], the “reduction of ischemia/reperfusion injury during organ operation or transplantation” value [6] is listed as “did not significantly reduce”.

Source: patent publication US20040043992A1, “Meloxicam for alleviating organ injury during organ operation or transplantation” (Boehringer Ingelheim International GmbH, priority 2002, published 2004)
